Data reported in patent publication US7435431B2, “Method for controlling body weight in estrogen-insufficient women” (Abbott Laboratories, priority 2004, dated 2008).

Columns and labels:
Format in all cases: in vivo, rat
[1] = system: ovariectomized (OVX) rats; assay: Experiment III: micro-computed tomography
Procedure: (§1) After five days of acclimatization, study animals were randomly assigned to one of 15 groups (n=10/group) and placed in individual cages. Rats were either sham-operated (SHAM) or ovariectomized (OVX) and fed casein-based diets for forty days. To ensure that sufficient bone loss has occurred in the OVX animals, bone mineral density was assessed via Dual Energy X-ray Absorptiometry (DEXA) prior to treatment. Groups 1 and 2 were fed casein-based diets throughout the entire length of the study and served as the control groups. Treatments were initiated for Groups 3-15 forty days post ovariectomy surgery and followed for 60 days. Bone mineral density was assessed before and after treatments. Two days prior to the termination of the study, rats were placed in individual metabolic cages and urine was collected from 18:00 h-6:00 h. During this period, the rats had no access to food. Urine was collected in acid-washed tubes, acidified with 0.03 ml of 6 mol/L of HCl per ml of urine and the total volume was measured. At the end of the study, the rats were anesthetized with ketomine and xylazine (intraperitoneally; 100 mg and 5 mg/kg body weight, respectively) and exsanguinated. Blood was collected, serum separated and aliquoted in small samples. All urine and plasma samples were frozen at −20° C. until analyses. Femurs and 3-5 lumbar spine were dissected out for bone analyses. Initial and weekly body weights were measured. Sham animals were fed ad libitum and their precise food intakes were measured every three days. Before each feeding, the food remaining was weighed and the amount ingested was calculated. Rats in the other groups were pair-fed to the mean intake of the sham animals and had free access to deionized water.
(§2) The design was a randomized, prospective, single-blind, positive controlled, parallel study. Control groups were fed a casein-based diet. Treatment groups were fed semi-purified diets containing casein, fructooligosaccharides, whole dried plum powder or dried plum polyphenol solids, dried plum juice solids, dried plum puree solids, dried plum skin solids or raisin solids or fig solids or date solids or blueberry solids or HMB. The treatment groups are outlined in following table:
(§3) One hundred fifty, (n=10/group) ninety day old Harlan Sprague-Dawley, 210 gm, female rats were purchased from Harlan Sprague Dawley Inc. (Indianapolis, Ind.). Upon arrival at the institution, rats were individually housed in stainless steel wire mesh cages in an environmentally controlled animal laboratory at 25° C. with a 12 h light-dark cycle. The rats had free access to deionized water and semi-purified diets. They were handled according to National Institutes of Health guidelines for humane treatment of experimental animals.
The composition of the semi-purified casein-based diets are described in the following table. To ensure equivalency, the diets were assayed for carbohydrate, protein, fat, calcium and phosphorus content prior to the feeding protocol. All diets were prepared to be isonitrogenous, isocaloric and equivalent in calcium and phosphorus content. The diets consisted of approximately 22% protein, 67% carbohydrate and 11% fat. […]

[2] = Experiment III: body weight gain, fat gain and food intake
Procedure: (§4) After five days of acclimatization, study animals were randomly assigned to one of 15 groups (n=10/group) and placed in individual cages. Rats were either sham-operated (SHAM) or ovariectomized (OVX) and fed casein-based diets for forty days. To ensure that sufficient bone loss has occurred in the OVX animals, bone mineral density was assessed via Dual Energy X-ray Absorptiometry (DEXA) prior to treatment. Groups 1 and 2 were fed casein-based diets throughout the entire length of the study and served as the control groups. Treatments were initiated for Groups 3-15 forty days post ovariectomy surgery and followed for 60 days. Bone mineral density was assessed before and after treatments. […] Urine was collected in acid-washed tubes, acidified with 0.03 ml of 6 mol/L of HCl per ml of urine and the total volume was measured. […] Initial and weekly body weights were measured. Sham animals were fed ad libitum and their precise food intakes were measured every three days. Before each feeding, the food remaining was weighed and the amount ingested was calculated. […]
(§5) The composition of the semi-purified casein-based diets are described in the following table. […] Sham animals were fed ad libitum and their precise food intakes were measured every three days. Before each feeding, the food remaining was weighed and the amount ingested was calculated. […]

[3] = system: ovariectomized (OVX) rats; assay: Experiment III: serum, urine and bone mineral and biochemical measures
Procedure: as §4, §5

[4] = system: ovariectomized (OVX) rats; assay: Experiment III: bone mineral density and bone mineral content (DEXA)
Procedure: as §1, §2, §3
The composition of the semi-purified casein-based diets are described in the following table. To ensure equivalency, the diets were assayed for carbohydrate, protein, fat, calcium and phosphorus content prior to the feeding protocol. All diets were prepared to be isonitrogenous, isocaloric and equivalent in calcium and phosphorus content. The diets consisted of approximately 22% protein, 67% carbohydrate and 11% fat. The treatment diets also contained 7.5% or 5% (w/w) dried plum powder (Sunsweet Growers, Inc., Pleasanton, Calif.), or 7.5% (w/w) dried plum solids from juice concentrate (Sunsweet Growers, Inc., Pleasanton, Calif.), or 7.5% (w/w) dried plum solids from puree (Sunsweet Growers, Inc., Pleasanton, Calif.), or 7.5% (w/w) dried plum solids from pulp/skins (Sunsweet Growers, Inc., Pleasanton, Calif.), or dried plum polyphenols equivalent to 7.5% (w/w) dried plum powder, or 7.5% (w/w) raisin solids (Mid America), or 7.5% (w/w) fig solids (Mid America), or 7.5% (w/w) date solids (Mid America), or 7.5% (w/w) blueberry solids (Mid America), or 0.25% (w/w) HMB (Metabolic Technologies, Inc., Ames, Iowa) and 5% or 2% (w/w) short chain fructooligosaccharides (NutraFlora®, FOS Golden Technologies, Inc). […]

Structure (SMILES): CC(C)(O)CC(=O)O [HMB, beta-hydroxy beta methylbutyrate]
- Bone Volume/Total Volume (Ranked) Mean ± SE [1]: 0.1141 ± 0.00658b
- Connective Density (Ranked) Mean ± SE [1]: 32.865 ± 2.472b
- Structural Model Index (Ranked) Mean ± SE [1]: 1.931 ± 0.04093a
- Trabecular No. (Ranked) Mean ± SE [1]: 1.649 ± 0.078c 1/mm
- Trabecular separation (Ranked) Mean ± SE [1]: 0.6555 ± 0.03361a mm
- Body Weight Gain during Treatment period Mean ± SE ([2]; OVX rats, pair-fed to SHAM): 29.0 ± 6.9
- fat gain during the treatment period ([2]; compared to OVX-control): significantly less fat gain
- Serum IGF-1 levels compared to OVX-control [3]: significant increases
- effects on BMD [4]: no significant effects
- reversal of osteopenia [4]: did not reverse established osteopenia
- Bone mineral content (LS Mean ± SE) Femur ([4]; OVX rats): 0.4155 ± 0.00996
- Bone mineral content (LS Mean ± SE) Spine ([4]; OVX rats): 0.1187 ± 0.00419
- Bone mineral content (LS Mean ± SE) Whole body ([4]; OVX rats): 9.7590 ± 0.1323
- Bone mineral density (Mean ± SE) Femur ([4]; OVX rats): 0.2198 ± 0.00293b
- Bone mineral density (Mean ± SE) Spine ([4]; OVX rats): 0.2341 ± 0.0035bc
- Change in Bone mineral density (from Baseline) Whole body ([4]; OVX rats, baseline to final): 0.00298 ± 0.00144ab
- Bone mineral density (Mean ± SE) Whole body ([4]; OVX rats, casein-based diets): 0.1599 ± 0.0016b
